We go through 2 compounds from patent publication US20090035876A1, “Electrochemical Assay” (Inverness Medical Switzerland GMBH, priority 2005, published 2009).

Data set [1] deals with human serum albumin (HSA) (Homo sapiens, UniProt P02768). Conditions: probe 25 μM, HSA 500 μM, cyclic voltammetry.
Source text: Cyclic voltammetry was used to measure the concentration of the ferrocene labelled fatty acid probe with and without the presence of HSA allowing percentage bound to be calculated.
Data set [2] in a line: Photolysis of the UV-cleavable ferrocene molecule in solution, followed by TLC. Conditions: UV 365 nm, methanolic/PBS solution, 2.18 mM. The class given is physicochemical. As to the method:
The cleavage study was followed by Thin Layer Chromatography (TLC) after irradiation for a definite time of a methanolic/PBS solution of the UV-cleavable ferrocene 9 (FIG. 3). • After 2 minutes of irradiation, the appearance of two new products was observed; One of them corresponding to the ferrocene product 8 (on the base line), the other one corresponding probably to the nitroso-derivative 10 just under the front line). • Under the irradiation conditions used, the Uv-cleavable ferrocene molecule was completely cleaved in less than 6 minutes.
To a solution of UV-cleavable ferrocene 9 (0.7 mg, 1.09*10^−6 mol) dissolved in 250 μl of methanol was added 250 μl of PBS. 30 μl of this solution was irradiated using a UV model B100A with a wavelength of 365 nm and an intensity of 8,900 μW/cm^2 at 10″. The UV was applied at approximately 15 cm from the solution.
The cleavage was followed by TLC every two minutes. Eluent used: Ethyl acetate/hexane (80/20) and DCM/MeOH/Et3N (85/10/5).

human serum albumin (HSA), sequence (P02768 25-609): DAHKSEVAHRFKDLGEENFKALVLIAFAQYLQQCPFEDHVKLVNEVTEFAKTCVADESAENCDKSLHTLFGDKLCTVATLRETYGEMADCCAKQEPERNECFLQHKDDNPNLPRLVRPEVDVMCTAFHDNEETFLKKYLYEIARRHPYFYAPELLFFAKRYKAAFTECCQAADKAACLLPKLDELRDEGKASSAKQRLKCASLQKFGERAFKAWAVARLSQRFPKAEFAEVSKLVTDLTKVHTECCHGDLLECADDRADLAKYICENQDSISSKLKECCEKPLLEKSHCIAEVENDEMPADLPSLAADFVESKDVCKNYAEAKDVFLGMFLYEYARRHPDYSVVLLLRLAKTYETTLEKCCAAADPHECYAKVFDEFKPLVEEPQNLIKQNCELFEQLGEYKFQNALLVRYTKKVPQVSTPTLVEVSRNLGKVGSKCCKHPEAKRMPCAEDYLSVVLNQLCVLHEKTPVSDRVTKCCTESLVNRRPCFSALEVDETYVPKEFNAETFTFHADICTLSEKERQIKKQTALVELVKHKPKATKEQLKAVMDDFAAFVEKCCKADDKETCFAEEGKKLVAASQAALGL

In the case of `OC[c-]1cccc1.[Fe+2].c1cc[cH-]c1` [ferrocene methanol], in data set [1], the “percentage bound to HSA” value was 50%.

As to “Thioacetic acid S—[3-(1-{2-[2-(2-ferrocenoylamino-ethoxy)-ethoxy]-ethylcarbamoyloxy}-ethyl)-4-nitro-benzyl]ester [UV-cleavable ferrocene molecule 9]”, the “irradiation time until completely cleaved” value in data set [2] was “less than 6 minutes”.
